This note sets out measurements from patent US20230233569A1 (Revolution Medicines, Inc., priority 2020, published 2023).

Structures are written as SMILES. Values joined by “and” are separate entries in the source; they are usually repeats but may differ in a detail not shown here. Equal values may be shown once. Read-outs that look alike come from different tables or passages of the source.

Common to all, as to experiment: Disruption of BRAF RBD interaction with Ras (FRET / MOA assay, with Cyclophilin A)
Common to all, as to type: biochemical

For assay [1], the target named is NRAS Q61R (Homo sapiens, UniProt P01111+P62937, Q61R). Conditions: NRAS Q61R; read-out: NRAS Q61R FRET data IC50. The method, boiled down: (§1)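 TR-FRET in 25 mM HEPES pH 7.3, 100 mM NaCl, 5 mM MgCl2, 0.1% BSA: 25 μM Cyclophilin A, 12.5 nM His6-Ras-GMPPNP, 50 nM GST-BRAF RBD with compound (10-point 3-fold series from 30 μM), 3 h at 25° C. Anti-His Eu/anti-GST APC added, 1.5 h more; IC50 from decreased FRET ratio versus DMSO.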

For assay [2], the target named is KRAS Q61H (Homo sapiens, UniProt P01116+P62937, Q61H). Conditions: KRAS Q61H; read-out: KRAS Q61H FRET data IC50. The method, boiled down:
as §1

For assay [3], the target named is KRAS G13D (Homo sapiens, UniProt P01116+P62937, G13D). The method, boiled down:
(§2)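 IC50 values reflect loss of K-Ras binding to BRAF RBD, read as a lowered TR-FRET ratio compared with DMSO, driven by compound-mediated K-Ras:Cyclophilin A complex formation. Compound top dose 30 μM final, 3-fold steps, 3 h incubation at 25 °C before a 1.5 h antibody step.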

For assay [4], the target named is NRAS G12C (Homo sapiens, UniProt P01111+P62937, G12C).
Assay [5] deals with KRAS WT (Homo sapiens, UniProt P01116+P62937). In short, it runs like this: as §2
Assay [6] deals with KRAS G12C (Homo sapiens, UniProt P01116+P62937, G12C). In short, it runs like this:
as §2

The target of assay [7] is KRAS G12D (Homo sapiens, UniProt P01116+P62937, G12D). Conditions: read-out: KRAS G12D FRET data, IC50. In short, it runs like this:
as §2

In assay [8] the target is KRAS G12S (Homo sapiens, UniProt P01116+P62937, G12S). In short, it runs like this:
as §2

Assay [9] concerns the target KRAS G12V (Homo sapiens, UniProt P01116+P62937, G12V). In short, it runs like this:
as §2

The target of assay [10] is KRAS G13C (Homo sapiens, UniProt P01116+P62937, G13C). Conditions: KRAS G13C; read-out: KRAS G13C FRET data IC50. The method, boiled down:
as §2

Setting [11] is: KRAS G13D, read-out: KRAS G13D FRET data IC50.
[12] abbreviates: NRAS G12C, read-out: NRAS G12C FRET data IC50.
Where [13] appears, read: KRAS WT, read-out: KRAS WT FRET data IC50.
[14] abbreviates: KRAS G12C, read-out: KRAS G12C FRET data IC50.
The mark [15] stands for this setting: read-out: KRAS G12S FRET data, IC50.
Where [16] appears, read: KRAS G12V, read-out: KRAS G12V FRET data IC50.

Usually IC50 stands for the concentration that gives 50% inhibition.

Sequence of KRAS G12S (P01116 1-169 isoform P01116-2 G12S limits assumed): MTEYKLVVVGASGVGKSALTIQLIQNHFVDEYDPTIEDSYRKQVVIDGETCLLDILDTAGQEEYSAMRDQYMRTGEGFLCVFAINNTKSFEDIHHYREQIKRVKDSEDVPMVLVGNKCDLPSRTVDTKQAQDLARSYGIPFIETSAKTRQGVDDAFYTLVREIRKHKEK
Sequence of KRAS G12S (P62937 whole entry): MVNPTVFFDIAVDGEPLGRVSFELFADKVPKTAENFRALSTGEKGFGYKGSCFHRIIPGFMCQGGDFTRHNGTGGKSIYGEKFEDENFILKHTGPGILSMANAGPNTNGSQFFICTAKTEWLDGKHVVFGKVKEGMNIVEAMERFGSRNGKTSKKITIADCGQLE
Sequence of NRAS G12C (P01111 whole entry G12C): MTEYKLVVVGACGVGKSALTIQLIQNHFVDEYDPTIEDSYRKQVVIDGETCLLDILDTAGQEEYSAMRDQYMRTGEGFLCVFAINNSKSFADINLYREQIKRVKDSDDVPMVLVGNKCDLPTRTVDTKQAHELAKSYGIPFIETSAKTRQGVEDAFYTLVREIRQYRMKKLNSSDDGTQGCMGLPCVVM
Sequence of NRAS G12C (P62937 whole entry): as the sequence (P62937 whole entry) above
Sequence of NRAS Q61R (P01111 whole entry Q61R): as the sequence (P01111 whole entry G12C) above, with C12G, Q61R counted along it
Sequence of NRAS Q61R (P62937 whole entry): as the sequence (P62937 whole entry) above
Sequence of KRAS WT (P01116 1-169 isoform P01116-2 limits assumed): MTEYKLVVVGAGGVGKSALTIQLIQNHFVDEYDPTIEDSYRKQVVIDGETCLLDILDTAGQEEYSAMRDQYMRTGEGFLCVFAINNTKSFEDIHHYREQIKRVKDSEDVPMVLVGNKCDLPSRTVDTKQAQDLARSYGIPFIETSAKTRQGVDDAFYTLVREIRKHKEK
Sequence of KRAS WT (P62937 whole entry): as the sequence (P62937 whole entry) above
Sequence of KRAS G12V (P01116 1-169 isoform P01116-2 G12V limits assumed): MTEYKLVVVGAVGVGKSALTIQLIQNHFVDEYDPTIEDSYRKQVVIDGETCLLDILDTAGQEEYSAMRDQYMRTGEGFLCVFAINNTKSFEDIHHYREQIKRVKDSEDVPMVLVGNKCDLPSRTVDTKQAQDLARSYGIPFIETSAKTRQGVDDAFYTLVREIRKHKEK
Sequence of KRAS G12V (P62937 whole entry): as the sequence (P62937 whole entry) above
Sequence of KRAS G12D (P01116 1-169 isoform P01116-2 G12D limits assumed): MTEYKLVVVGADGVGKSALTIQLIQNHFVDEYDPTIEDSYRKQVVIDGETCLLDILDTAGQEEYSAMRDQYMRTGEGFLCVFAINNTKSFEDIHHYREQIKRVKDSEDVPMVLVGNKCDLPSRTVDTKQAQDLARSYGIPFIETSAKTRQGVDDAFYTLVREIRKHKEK
Sequence of KRAS G12D (P62937 whole entry): as the sequence (P62937 whole entry) above
Sequence of KRAS Q61H (P01116 1-169 isoform P01116-2 Q61H limits assumed): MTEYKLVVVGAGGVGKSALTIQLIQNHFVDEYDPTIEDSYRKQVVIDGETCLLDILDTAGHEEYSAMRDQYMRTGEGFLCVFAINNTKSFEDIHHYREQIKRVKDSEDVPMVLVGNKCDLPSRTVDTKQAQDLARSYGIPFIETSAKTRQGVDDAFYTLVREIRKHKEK
Sequence of KRAS Q61H (P62937 whole entry): as the sequence (P62937 whole entry) above
Sequence of KRAS G12C (P01116 1-169 isoform P01116-2 G12C): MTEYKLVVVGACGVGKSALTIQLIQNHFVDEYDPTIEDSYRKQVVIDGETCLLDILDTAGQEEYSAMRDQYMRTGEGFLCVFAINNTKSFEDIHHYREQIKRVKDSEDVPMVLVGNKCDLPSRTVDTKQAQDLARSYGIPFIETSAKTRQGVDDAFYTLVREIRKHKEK
Sequence of KRAS G12C (P62937 whole entry): as the sequence (P62937 whole entry) above
Sequence of KRAS G13C (P01116 1-169 isoform P01116-2 G13C): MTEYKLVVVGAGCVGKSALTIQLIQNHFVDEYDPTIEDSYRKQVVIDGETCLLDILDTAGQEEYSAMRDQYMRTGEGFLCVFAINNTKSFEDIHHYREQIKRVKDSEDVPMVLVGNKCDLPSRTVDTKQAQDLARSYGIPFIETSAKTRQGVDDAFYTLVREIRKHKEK
Sequence of KRAS G13C (P62937 whole entry): as the sequence (P62937 whole entry) above
Sequence of KRAS G13D (P01116 1-169 isoform P01116-2 G13D limits assumed): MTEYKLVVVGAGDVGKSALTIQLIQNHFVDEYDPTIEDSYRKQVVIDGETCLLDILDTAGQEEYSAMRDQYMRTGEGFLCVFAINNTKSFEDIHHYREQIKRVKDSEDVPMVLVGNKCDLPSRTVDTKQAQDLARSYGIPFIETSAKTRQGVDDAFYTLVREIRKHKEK
Sequence of KRAS G13D (P62937 whole entry): as the sequence (P62937 whole entry) above

Consider `C=CS(=O)(=O)N1CC[C@H](C(=O)N(C)[C@H](C(=O)N[C@H]2Cc3nc(cs3)-c3ccc4c(c3)c(c(-c3cncnc3)n4CC)CC(C)(C)COC(=O)[C@@H]3CCCN(N3)C2=O)C(C)C)C1` [Example A170], for which the IC50 in assay [1] is greater than 10000 nM; in [2] it was greater than 10000 nM; in assay [3] (setting [11]) it was greater than 10000 nM; in assay [4] (setting [12]), 1000 to 10000 nM; in assay [5] (setting [13]), greater than 10000 nM; in [6] (setting [14]), 1000 to 10000 nM. The half-maximal inhibitory concentration (IC50) was greater than 10000 nM in assay [7], greater than 10000 nM in assay [8] (setting [15]), greater than 10000 nM in [9] (setting [16]) and 1000 to 10000 nM in assay [10].
For `C=CC(=O)N1CCOC2(CCN(C(=O)N(C)[C@H](C(=O)N[C@H]3Cc4cc(CF)cc(c4)-c4ccc5c(c4)c(c(-c4cccnc4[C@H](C)OC)n5CC(F)(F)F)CC(C)(C)COC(=O)C4CCCN(N4)C3=O)C(C)C)CC2)C1` (stereo partly shown) [Example A605], the IC50 in assay [1] was 100 to 1000 nM; in assay [2], 10 to 100 nM; in [3] (setting [11]) it was 100 to 1000 nM; in assay [4] (setting [12]), 100 to 1000 nM; in assay [5] (setting [13]) it was 10 to 100 nM; in assay [6] (setting [14]), 100 to 1000 nM. The half-inhibitory concentration (IC50) in assay [7] lay in the range of 100 to 1000 nM; in assay [8] (setting [15]) it was 100 to 1000 nM; in assay [9] (setting [16]), 100 to 1000 nM; in assay [10] it was 10 to 100 nM.
Take `CCn1c(-c2cccnc2[C@H](C)OC)c2c3cc(ccc31)-c1cccc(c1)C[C@H](NC(=O)[C@@H](CN1CC[C@]3(CCN(C(=O)C#C[C@H]4COCCN4C)C3)C1=O)C(C)C)C(=O)N1CCCC(N1)C(=O)OCC(C)(C)C2` (stereo partly shown) [Example A592]: the 50% inhibitory concentration (IC50) in assay [1] was greater than 10000 nM; in assay [2], 1000 to 10000 nM; in assay [3] (setting [11]) it was greater than 10000 nM; in assay [4] (setting [12]), 10 to 100 nM; in assay [5] (setting [13]) it was greater than 10000 nM; in assay [6] (setting [14]), 10 to 100 nM. The IC50 is greater than 10000 nM in assay [7], 1000 to 10000 nM in assay [8] (setting [15]), 1000 to 10000 nM in assay [9] (setting [16]) and 1000 to 10000 nM in [10].
As to `C=CC(=O)N1CC[C@H](C(=O)N(C)[C@H](C(=O)N[C@H]2Cc3cc(O)cc(c3)-c3ccc4c(c3)c(c(-c3cccnc3)n4C3CC3)CC(C)(C)COC(=O)[C@@H]3CCCN(N3)C2=O)C(C)C)C1` [Example A160], the IC50 is greater than 10000 nM in assay [1]; 1000 to 10000 nM in assay [2]; greater than 10000 nM in [3] (setting [11]); 1000 to 10000 nM in assay [4] (setting [12]); greater than 10000 nM in [5] (setting [13]); 100 to 1000 nM in assay [6] (setting [14]). The half-maximal inhibitory concentration (IC50) in [7], in assay [8] (setting [15]), in [9] (setting [16]) and in assay [10] was greater than 10000 nM each time.
On to `CCn1c(-c2cccnc2[C@H](C)OC)c2c3cc(ccc31)-c1csc(n1)C[C@H](NC(=O)[C@H](C(C)C)N(C)C(=O)N1CC(N(C)C(=O)C#CC(C)(C)N3CCC3)C1)C(=O)N1CCC[C@H](N1)C(=O)OCC(C)(C)C2` [Example A379], for which the IC50 in [1] is 100 to 1000 nM; in assay [2] it was 10 to 100 nM; in assay [3] (setting [11]), 100 to 1000 nM; in assay [4] (setting [12]), 10 to 100 nM; in assay [5] (setting [13]), 100 to 1000 nM; in assay [6] (setting [14]) it was less than 10 nM. Also, the IC50 lay in the range of 1000 to 10000 nM in [7], 100 to 1000 nM in assay [8] (setting [15]), 100 to 1000 nM in [9] (setting [16]) and 10 to 100 nM in assay [10].
As to `C=CC(=O)N1CCO[C@H]2CN(C(=O)N(C)[C@H](C(=O)N[C@H]3Cc4cccc(c4)-c4ccc5c(c4)c(c(-c4cccnc4[C@H](C)OC)n5CC)CC(C)(C)COC(=O)C4CCCN(N4)C3=O)C(C)C)C[C@H]21` (stereo partly shown) [Example A610], the IC50 lay within 100 to 1000 nM in assay [1]; 100 to 1000 nM in assay [2]; 1000 to 10000 nM in assay [3] (setting [11]); 10 to 100 nM in assay [4] (setting [12]); 100 to 1000 nM in [5] (setting [13]); 10 to 100 nM in assay [6] (setting [14]). Besides, the 50% inhibitory concentration (IC50) in assay [7] lay within 1000 to 10000 nM; in [8] (setting [15]), 1000 to 10000 nM; in [9] (setting [16]) it was 1000 to 10000 nM; in [10] it was 10 to 100 nM.
Take `C=CC(=O)N1CC(OC[C@H](C(=O)N[C@H]2Cc3cc(F)cc(c3)-c3ccc4c(c3)c(c(-c3cccnc3[C@H](C)OC)n4CC)CC(C)(C)COC(=O)[C@@H]3CCCN(N3)C2=O)C(C)C)C1` (atropisomer, axis not shown) [Example A725]: the concentration for half-maximal inhibition (IC50) in assay [1] fell in the range of 1000 to 10000 nM; in assay [2] it was 100 to 1000 nM; in assay [3] (setting [11]), 1000 to 10000 nM; in [4] (setting [12]), 100 to 1000 nM; in assay [5] (setting [13]), 1000 to 10000 nM; in assay [6] (setting [14]) it was 100 to 1000 nM. The half-maximal inhibitory concentration (IC50) in assay [7] is greater than 10000 nM; in assay [8] (setting [15]), 1000 to 10000 nM; in assay [9] (setting [16]), 1000 to 10000 nM; in [10], 100 to 1000 nM.
Turning to `C=CC(=O)N1CCO[C@H]2CN(C(=O)N(C)[C@H](C(=O)N[C@H]3CN4CCC=C(C4)c4ccc5c(c4)c(c(-c4cccnc4[C@H](C)OC)n5CC)CC(C)(C)COC(=O)[C@@H]4CCCN(N4)C3=O)C(C)C)C[C@H]21` [Example A552], the 50% inhibitory concentration (IC50) in assay [1] lay in the range of 1000 to 10000 nM; in assay [2], 100 to 1000 nM; in [3] (setting [11]) it was 1000 to 10000 nM; in assay [4] (setting [12]) it was 10 to 100 nM; in assay [5] (setting [13]), 100 to 1000 nM; in assay [6] (setting [14]) it was 10 to 100 nM. In addition, the IC50 in assay [7] is 1000 to 10000 nM; in assay [8] (setting [15]) it was 1000 to 10000 nM; in assay [9] (setting [16]), 1000 to 10000 nM; in [10], 10 to 100 nM.
For the compound `C=CC(=O)N1CC[C@H](C(=O)N(C)[C@H](C(=O)N[C@H]2Cc3cc(O)cc(c3)-c3ccc4c(c3)c(c(-c3cc(C)cnc3[C@H](C)OC)n4CC)CC(C)(C)COC(=O)[C@@H]3CCCN(N3)C2=O)C(C)C)C1` [Example A167], the IC50 in assay [1] is 100 to 1000 nM; in [2], 10 to 100 nM; in assay [3] (KRAS G13D FRET data IC50, KRAS G13D), 100 to 1000 nM and > 10000 nM; in assay [4] (NRAS G12C FRET data IC50, NRAS G12C) it was 100 to 1000 nM and < 10 nM; in [5] (KRAS WT FRET data IC50, KRAS WT), 10 to 100 nM; in assay [5] (setting [13]) it was 1000 to 10000 nM. Besides, the half-maximal inhibitory concentration (IC50) in assay [6] (KRAS G12C FRET data IC50, KRAS G12C) is 100 to 1000 nM and < 10 nM; in assay [7] it was > 10000 nM and 100 to 1000 nM; in assay [8] (KRAS G12S FRET data, IC50), 10 to 100 nM; in [8] (setting [15]) it was 1000 to 10000 nM; in [9] (KRAS G12V FRET data IC50, KRAS G12V), 10 to 100 nM; in assay [9] (setting [16]), 1000 to 10000 nM. Besides, the IC50 in assay [10] is 1000 to 10000 nM and 10 to 100 nM.
As for `CCn1c(-c2cccnc2[C@H](C)OC)c2c3cc(ccc31)-c1cccc(c1)C[C@H](NC(=O)[C@@H](COC1CN(C(=O)C#C[C@@H]3COCCN3C)C1)C(C)C)C(=O)N1CCC[C@H](N1)C(=O)OCC(C)(C)C2` (atropisomer, axis not shown) [Example A648], the concentration for half-maximal inhibition (IC50) in [1] is greater than 10000 nM; in assay [2] it was greater than 10000 nM; in assay [3] (setting [11]), greater than 10000 nM; in assay [4] (setting [12]), 100 to 1000 nM; in [5] (setting [13]), 1000 to 10000 nM; in assay [6] (setting [14]), 100 to 1000 nM. In addition, the half-inhibitory concentration (IC50) in assay [7] was greater than 10000 nM; in assay [8] (setting [15]), greater than 10000 nM; in assay [9] (setting [16]), greater than 10000 nM; in assay [10] it was 1000 to 10000 nM.
